Data taken from patent US10973794B2, “Dental composition and use” (CALSCIENCE INTERNATIONAL LTD., priority 2015, dated 2021).

Legend:
[1] = system: human foreskin fibroblasts (HFFs); experiment: WST-1 Cell Proliferation Assay; type: cell-based
Procedure: (§1) The following results relate to the analysis of senescence tests on 1,5-Dicaffeoylquinic Acid (1,5-DCQA). FIG. 8 relates to 1,4-DCQA. The experiments were conducted using human foreskin fibroblasts (HFFs).
The WST-1 Cell Proliferation Assay provides a sensitive and accurate assay for cell proliferation and cytotoxicity (cell viability). The WST assay is based on the cleavage of the tetrazolium salt WST-1 to formazan by cellular mitochondrial dehydrogenases. Expansion in the number of viable cells results in an increase in the overall activity of the mitochondrial dehydrogenases in the sample. The augmentation in enzyme activity results in an increase in the amount of formazan dye formed. The formazan dye produced by viable cells was quantified by a multi-well spectrophotometer by measuring the absorbance of the dye solution at 440 nm. The compound provided was tested in the WST assay over a range of dilutions. […] The results of the assay show the standard deviation (SD) for 1,5-DCQA and the control, and the mean values for 1,5-DCQA and the control.

[2] = system: p16; experiment: Taqman Real Time-PCR expression of p16 in HFFs with and without H2O2 stress-induced premature senescence; type: cell-based, human
Procedure: as §1
(§2) In the following experiments, HFFs were challenged for a period of two hours with 150 μM hydrogen peroxide (H2O2), to stimulate premature senescence in the presence and absence of 1,5-DCQA (1/1000 dilution), and subsequently assayed by Taqman Real Time-PCR for the expression of key senescence associated genes.
(§3) The results shown in Table 2 and FIGS. 2 to 7 were generated using the polymerase chain reaction (PCR), wherein the dCt and ddCT values are results used in statistical analysis. The abbreviation dCt relates to “delta cycle threshold” and the abbreviation ddCt relates to “delta delta cycle threshold”. In these experiments, HPRT (hypoxanthine phosphoribosyltransferase, a protein from the HPRT-1 gene) was used as a control.

[3] = system: Sirtuin 2 (SIRT2); experiment: Taqman Real Time-PCR expression of Sirtuin 2 in HFFs with and without H2O2 stress-induced premature senescence; type: cell-based, human; conditions: without stress, FIG. 6
Procedure: as §1, §2
(§4) These genes are involved in cell cycle regulation and mitochondrial stress responses. Challenge with a near lethal level of oxidant stress typically induces an increase in SIRT2 and decrease in SIRT3 expression. […] This is indicative of each having a potential for stimulating cell proliferation in the absence of oxidant challenge.
as §3

[4] = system: Sirtuin 3 (SIRT3); experiment: Taqman Real Time-PCR expression of Sirtuin 3 in HFFs with and without H2O2 stress-induced premature senescence; type: cell-based, human; conditions: following oxidant challenge, FIG. 7
Procedure: as §1, §2, §4, §3

[5] = system: XRCC5; experiment: Taqman Real Time-PCR expression of XRCC5 in HFFs with and without H2O2 stress-induced premature senescence; type: cell-based, human; conditions: with and without 150 μM H2O2, FIG. 4
Procedure: as §1, §2
XRCC5 is a double strand break repair protein.
as §3

Compound: O=C(/C=C/c1ccc(O)c(O)c1)O[C@@H]1C[C@](OC(=O)/C=C/c2ccc(O)c(O)c2)(C(=O)O)C[C@@H](O)[C@H]1O [1,5-DCQA, 1,5-Dicaffeoylquinic Acid]
- effect on cell viability (WST assay) ([1]; 1/1000 and 2/1000 dilutions): beneficial to cell viability
- Mean (WST-1 assay, absorbance at 440 nm) ([1]; dilution 1/1000): 0.916
- Mean (WST-1 assay, absorbance at 440 nm) ([1]; dilution 2/1000): 0.868
- Mean (WST-1 assay, absorbance at 440 nm) ([1]; dilution 3/1000): 0.717
- Mean (WST-1 assay, absorbance at 440 nm) ([1]; dilution 4/1000): 0.363
- Mean (WST-1 assay, absorbance at 440 nm) ([1]; dilution 5/1000): 0.178
- Mean (WST-1 assay, absorbance at 440 nm) ([1]; dilution 6/1000): 0.300
- Mean (WST-1 assay, absorbance at 440 nm) ([1]; dilution 7/1000): 0.419
- Mean (WST-1 assay, absorbance at 440 nm) ([1]; dilution 8/1000): 0.196
- Mean (WST-1 assay, absorbance at 440 nm) ([1]; dilution 9/1000): 0.115
- Mean (WST-1 assay, absorbance at 440 nm) ([1]; dilution 10/1000): 0.069
- effect on p16 expression following oxidant challenge ([2]; 150 μM H2O2, FIG. 2): excellent protection from oxidant challenge
- effect on p16 expression in untreated cells ([2]; no H2O2, FIG. 2): no stress effect on untreated cells
- change in SIRT2 expression [3]: significant decrease in SIRT2 expression
- change in SIRT3 expression [4]: increase in SIRT3 expression
- expression of XRCC5 in comparison with the control data set [5]: substantially unaltered expression
